Experimental data from PMC6125496 (Antimicrobial Agents and Chemotherapy, 2018).
Values after ≈ are worked out from the molar mass of the structure shown. Like-named read-outs stand apart in the source and are kept apart here. Non-standard residues stand in square brackets, D forms with d. Residues, ends and D or L forms follow the SMILES beside them. Dab(3S-OH) = NC[C@H](O)[C@H](N)C(=O)O; Phe(2-F) = N[C@@H](Cc1ccccc1F)C(=O)O; ΔZArg = N=C(N)NCC/C=C(\N)C(=O)O; dOrn = NCCC[C@@H](N)C(=O)O; Dab = NCC[C@H](N)C(=O)O

Legend:
[1] = tested on: Escherichia coli, colistin-resistant (25)
Text: (§1) Reference strains are from the German Collection of Microorganisms and Cell Cultures (DSMZ), the American Type Culture Collection (ATCC), the National Collection of Type Cultures (NCTC), and the Medical and Molecular Microbiology, Faculty of Science and Medicine, University of Fribourg, Switzerland.

in vivo = conditions: female, plasma, iv
Description: Pharmacokinetic analyses were performed by Pharmacelsus (Saarbrücken, Germany). […] Blood (100 μl) was collected from three animals per time point (5, 10, 20, 30, 60, and 120 min postdose for mice and 5, 15, 30, 60, 180, and 420 min postdose for rats) in tubes containing K3-EDTA as an anticoagulant. Samples were stored on ice and centrifuged at 6,000 rpm for 10 min at 4°C. A sample volume of 50 μl was mixed with 5 μl of solvent (acetonitrile-H2O-DMSO, [5/4/1, vol/vol/vol] plus 1% formic acid). A volume of 10 μl of solvent containing the internal standard and 50 μl of precipitant (10% TCA) were added to 55 μl of sample. The mixture was vortexed and centrifuged at 6,000 × g (room temperature) for 10 min. The protein-free supernatant was analyzed by LC-MS using an Ultimate 3000RS ultrahigh-performance liquid chromatograph (U-HPLC) coupled with an Orbitrap Q Exactive mass spectrometer.
Analytes were separated on a Accurore phenyl-hexyl analytical column (2.1 by 50 mm, 2.6 μm; Thermo, Germany) using a linear gradient of mobile phase A (acetonitrile-0.2% heptafluorobutyric acid)-mobile phase B (water-0.2% heptafluorobutyric acid), starting from 5% mobile phase A to 97% in 2.2 min, and a flow rate of […]. Peaks were analyzed by mass spectrometry (ESI ionization in MRM mode) using Xcalibur 4.0 software. The products analyzed, [M + 2H]^2+ and [M + 3H]^3+, were 539.8 and 360.2 Da, respectively. PK parameters were calculated using a noncompartmental analysis model and Kinetica 5.0 software (Thermo Scientific, Waltham, MA). The mean plasma concentrations from all three mice at each time point were used in the calculation.

[2] = biological target: Nav 1.5 human sodium ion channel (Homo sapiens, UniProt Q14524); test: cell-based
Description: Inhibition of the Nav 1.5 human sodium ion channel was determined by Eurofins Panlabs in HEK-293 cells stably transfected with human Nav1.5 cDNA (type V voltage-gated sodium channel alpha subunit, GenBank accession number NM_000335) using IonWorks Quattro automated whole-cell patch clamp electrophysiology. […] In this method, the voltage protocol is applied prior to compound addition (Pre), the compounds are added and incubated for 600 s at room temperature, and then the voltage protocol is applied a final time (Post) on the IonWorks Quattro.

in vitro = conditions: plasma (EDTA anticoagulant), pH 7.4
Description: The […] were performed by Cyprotex Discovery Ltd. (Macclesfield, UK). […] The experiment was performed using equilibrium dialysis (RED device) with the two compartments separated by a semipermeable membrane. Buffer (pH 7.4) was added to one side of the membrane and the plasma solution to the other. After equilibration (4 h), samples were taken from both sides of the membrane. Calibration standards were prepared in plasma and buffer. All incubations were performed in triplicate. A control compound was included in each experiment. Incubation of the control compound samples was terminated with acetonitrile containing an internal standard (metoprolol). Incubation of the test compound samples was terminated with 40% TCA in water containing in internal standard (NOSO-95216; 1 μM final concentration). All samples were centrifuged and further diluted with water prior to analysis. The solutions for each batch of control compounds were combined into two groups (protein free and protein containing) and cassette analyzed by LC-MS/MS using two sets of calibration standards for protein-free (seven points) and protein-containing solutions (seven points).

Escherichia coli PSP = conditions: Ambler class A carbapenemase; KPC-2 + TEM-1 + OXA-1
Text: as §1

[3] = tested on: Klebsiella pneumoniae A33504; conditions: Ambler class A carbapenemase; KPC-2+ SHV-11 + TEM-1 + CTX-M-2 + OXA-9
Text: as §1

[4] = tested on: Enterobacter cloacae KBM15; conditions: Ambler class A carbapenemase; KPC-2 + TEM-1 + OXA-9
Text: as §1

[5] = tested on: Enterobacter cloacae 3047; conditions: Ambler class B carbapenemase; NDM-1 + CTX-M15 + TEM-1 + OXA-1
Text: as §1

Enterobacter cloacae YAM = conditions: Ambler class D carbapenemase; OXA-48 + CTX-M15 + TEM-1 + OXA-1 + DHA-1
Text: as §1

Enterobacter cloacae BEU = conditions: Ambler class D carbapenemase; OXA-48 + CTX-M15 + SHV-12 + TEM-1 + OXA-1 + DHA-1
Text: as §1

[6] = tested on: Klebsiella pneumoniae ATCC BAA-2146; conditions: Ambler class B carbapenemase; NDM-1 + CTX-M15 + TEM-1 + CMY-6 + OXA-1 + SHV-1
Text: as §1

Escherichia coli EGB957 = conditions: Ambler class B carbapenemase; VIM-1 + OXA-48 + TEM-1 + CMY-4 + OXA-1
Text: as §1

Escherichia coli COL = conditions: Ambler class A carbapenemase; KPC-2 + TEM-1 + CTX-M9
Text: as §1

Sequence of Nav 1.5 human sodium ion channel (Q14524 1-2015 isoform Q14524-2): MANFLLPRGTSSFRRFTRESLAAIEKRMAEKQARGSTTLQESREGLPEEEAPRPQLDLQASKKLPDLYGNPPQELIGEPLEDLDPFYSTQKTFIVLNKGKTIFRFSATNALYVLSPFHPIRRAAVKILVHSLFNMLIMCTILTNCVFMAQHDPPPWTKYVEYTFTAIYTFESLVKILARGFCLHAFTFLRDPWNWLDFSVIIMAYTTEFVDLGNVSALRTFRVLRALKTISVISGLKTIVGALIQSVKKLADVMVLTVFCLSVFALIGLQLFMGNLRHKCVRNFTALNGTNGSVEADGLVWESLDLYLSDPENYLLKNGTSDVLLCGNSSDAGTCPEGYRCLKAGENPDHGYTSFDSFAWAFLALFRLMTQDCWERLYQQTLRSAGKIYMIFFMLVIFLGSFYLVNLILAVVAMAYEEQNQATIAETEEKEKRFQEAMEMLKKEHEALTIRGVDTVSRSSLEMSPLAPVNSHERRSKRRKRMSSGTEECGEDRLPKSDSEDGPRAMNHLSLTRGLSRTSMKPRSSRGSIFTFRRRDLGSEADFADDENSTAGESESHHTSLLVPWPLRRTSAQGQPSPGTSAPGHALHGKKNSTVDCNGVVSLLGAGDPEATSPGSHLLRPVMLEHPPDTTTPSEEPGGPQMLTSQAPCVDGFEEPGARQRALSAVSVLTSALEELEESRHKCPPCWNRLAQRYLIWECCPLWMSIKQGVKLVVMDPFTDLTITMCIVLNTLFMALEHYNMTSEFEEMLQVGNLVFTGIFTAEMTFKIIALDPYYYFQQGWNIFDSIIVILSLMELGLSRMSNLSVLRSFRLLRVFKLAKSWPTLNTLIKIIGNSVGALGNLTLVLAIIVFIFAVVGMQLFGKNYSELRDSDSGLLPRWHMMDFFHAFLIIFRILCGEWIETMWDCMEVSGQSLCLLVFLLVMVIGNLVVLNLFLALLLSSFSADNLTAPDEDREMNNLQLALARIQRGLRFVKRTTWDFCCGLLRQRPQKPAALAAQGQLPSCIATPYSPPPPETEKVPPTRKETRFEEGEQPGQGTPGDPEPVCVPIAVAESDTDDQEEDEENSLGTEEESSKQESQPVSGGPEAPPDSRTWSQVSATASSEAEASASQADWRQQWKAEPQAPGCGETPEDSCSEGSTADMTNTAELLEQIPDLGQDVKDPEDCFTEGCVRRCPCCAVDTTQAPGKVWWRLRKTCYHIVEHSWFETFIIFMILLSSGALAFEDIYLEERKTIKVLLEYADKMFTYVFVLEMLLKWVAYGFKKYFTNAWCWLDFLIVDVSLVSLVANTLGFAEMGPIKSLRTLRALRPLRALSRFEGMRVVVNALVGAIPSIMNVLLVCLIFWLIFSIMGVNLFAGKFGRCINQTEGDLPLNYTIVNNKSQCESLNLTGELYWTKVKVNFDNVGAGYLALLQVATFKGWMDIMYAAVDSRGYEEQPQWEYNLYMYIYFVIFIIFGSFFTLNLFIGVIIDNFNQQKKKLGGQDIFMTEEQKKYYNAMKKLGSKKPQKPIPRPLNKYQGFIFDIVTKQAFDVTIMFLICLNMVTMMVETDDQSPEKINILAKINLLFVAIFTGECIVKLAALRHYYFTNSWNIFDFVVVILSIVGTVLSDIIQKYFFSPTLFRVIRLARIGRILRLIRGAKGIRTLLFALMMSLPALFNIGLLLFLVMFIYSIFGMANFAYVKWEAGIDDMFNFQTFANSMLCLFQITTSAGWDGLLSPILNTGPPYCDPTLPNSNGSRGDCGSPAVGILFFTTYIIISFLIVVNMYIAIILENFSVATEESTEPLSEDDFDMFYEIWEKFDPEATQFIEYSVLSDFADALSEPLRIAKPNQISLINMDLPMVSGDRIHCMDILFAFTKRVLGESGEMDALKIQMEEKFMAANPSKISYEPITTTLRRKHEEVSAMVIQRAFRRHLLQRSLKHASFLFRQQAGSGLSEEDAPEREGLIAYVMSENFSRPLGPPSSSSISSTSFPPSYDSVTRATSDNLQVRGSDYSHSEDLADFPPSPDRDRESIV

N=C(N)NCC/C=C(\NC(=O)[C@H](CCCCN)NC(=O)[C@H](Cc1ccccc1F)NC(=O)[C@@H]1CCCN1C(=O)[C@@H](CCCN)NC(=O)CNC(=O)[C@H](CCN)NC(=O)[C@@H](NC(=O)[C@@H](N)CCCCN)[C@@H](O)CN)C(=O)O [NOSO-502] (H-K[Dab(3S-OH)][Dab]G[dOrn]P[Phe(2-F)]K[ΔZArg]-OH)
MIC range ([1]; Unknown mechanism (2 isolates)): 1 to 2 µg/mL | MIC range ([1]; mcr-1 (21 isolates)): 1 to 4 µg/mL | MIC range ([1]; mcr-2 (1 isolate)): 1 µg/mL (≈ 0.927 µM) | MIC range ([1]; mcr-3 (1 isolate)): 1 µg/mL (≈ 0.927 µM) | AUC(0-t) (in vivo; CD-1, mouse, 30 mg/kg): 8880 ng·h/mL | Cmax (in vivo; CD-1, mouse, 30 mg/kg): 23500 ng/mL | Vd (in vivo; CD-1, mouse, 30 mg/kg): 0.66 L/kg | clearance (in vivo; CD-1, mouse, 30 mg/kg): 18.8 mL/min/kg | half-life (in vivo; CD-1, mouse, 30 mg/kg): 25 min | AUC(0-t) (in vivo; Sprague-Dawley, rat, 15 mg/kg): 7990 ng·h/mL | Cmax (in vivo; Sprague-Dawley, rat, 15 mg/kg): 40700 ng/mL | Vd (in vivo; Sprague-Dawley, rat, 15 mg/kg): 0.94 L/kg | clearance (in vivo; Sprague-Dawley, rat, 15 mg/kg): 32 mL/min/kg | half-life (in vivo; Sprague-Dawley, rat, 15 mg/kg): 90 min | IC50 [2]: > 512 µM | fraction unbound at 4 h, 2 μM (in vitro; dog): 0.176 | fraction unbound at 4 h, 2 μM (in vitro; human): 0.187 | fraction unbound at 4 h, 2 μM (in vitro; mouse): 0.198 | fraction unbound at 4 h, 2 μM (in vitro; rat): 0.205

polymyxin B [PMB]
MIC (Escherichia coli PSP): 0.5 µg/mL | MIC [3]: 0.5 µg/mL | MIC [4]: 0.5 µg/mL | MIC [5]: 0.5 µg/mL | MIC (Enterobacter cloacae YAM): 1 µg/mL | MIC (Enterobacter cloacae BEU): 16 µg/mL | MIC [6]: 1 µg/mL | MIC (Escherichia coli EGB957): 0.5 µg/mL | MIC (Escherichia coli COL): 0.5 µg/mL
